In patent US20060069132A1, “Azolecarboxamide herbicides” (priority 2004, published 2006):

Key:
[1] = system: cocklebur; assay: Test B pre-/postemergence herbicide test; type: in vivo, Xanthium strumarium; details: for Plant response rating (0 to 100 scale), Cocklebur: 0 is no effect
Outline: (§1)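 Formulation: non-phytotoxic solvent mix with surfactant. Timing: preemergence on seed and postemergence on 2–18 cm plants, applied concurrently. Readout after 13–15 d greenhouse: visual 0–100 control rating against controls.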

[2] = system: velvetleaf; assay: Test B pre-/postemergence herbicide test; type: in vivo, Abutilon theophrasti; details: for Plant response rating (0 to 100 scale), Velvetleaf: 0 is no effect, preemergence
Outline: (§2)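 Herbicidal effect was judged by eye on a 0–100 scale after plants stood 13 to 15 days in the greenhouse following pre- or postemergence treatment with surfactant-containing formulations.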

[3] = system: small flower umbrella sedge; assay: Test B flooded paddy test; type: in vivo, Cyperus difformis; details: 1000 g ai/ha, scale 0 to 100 (0 no effect, 100 complete control)
Outline: (§3)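 Scale 0–100: zero equals no visible effect, 100 complete control, judged by eye relative to controls. Timing: 13 to 15 days in greenhouse post-treatment. Growth stage at spraying: two leaves (paddy) or one to four leaves, 2–18 cm (postemergence).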

[4] = system: giant foxtail; assay: Test B pre-/postemergence herbicide test; type: in vivo, Setaria faberi; details: for Plant response rating (0 to 100 scale), Foxtail, Giant: 0 is no effect
Outline: as §2

[5] = system: blackgrass; assay: Test B postemergence herbicide test; type: in vivo, Alopecurus myosuroides
Outline: as §3

[6] = system: wheat; assay: Test B postemergence herbicide test; type: in vivo, Triticum aestivum; set-up: key to Wheat plant response rating: 0 = no effect, 100 = complete control
Outline: (§4)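 Greenhouse test; postemergence application to plants at 1–4 leaves (2–18 cm); paddy species at 2 leaves; evaluated visually vs controls at 13–15 days; scale 0–100 (100 = complete control).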

[7] = system: wild oat; assay: Test B postemergence herbicide test; type: in vivo, Avena fatua
Outline: as §4

[8] = system: large crabgrass; assay: Test B pre-/postemergence herbicide test; type: in vivo, Digitaria sanguinalis; details: for Plant response rating (0 to 100 scale), Crabgrass, Large: 0 is no effect
Outline: as §2

[9] = system: barnyardgrass; assay: Test B pre-/postemergence herbicide test; type: in vivo, Echinochloa crus-galli; details: for Plant response rating (0 to 100 scale), Barnyardgrass: 0 is no effect
Outline: as §1

[10] = system: Surinam grass; assay: Test B pre-/postemergence herbicide test; type: in vivo, Urochloa decumbens; details: for Plant response rating (0 to 100 scale), Surinam Grass: 0 is no effect
Outline: as §2

[11] = system: corn; assay: Test B pre-/postemergence herbicide test; type: in vivo, Zea mays; details: for Plant response rating (0 to 100 scale), Corn: 0 is no effect
Outline: as §2

[12] = system: pigweed; assay: Test B pre-/postemergence herbicide test; type: in vivo, Amaranthus retroflexus; details: for Plant response rating (0 to 100 scale), Pigweed: 0 is no effect
Outline: as §2

[13] = system: lambsquarters; assay: Test B pre-/postemergence herbicide test; type: in vivo, Chenopodium album; details: for Plant response rating (0 to 100 scale), Lambsquarters: 0 is no effect
Outline: as §2

[14] = system: rice; assay: Test B flooded paddy test; type: in vivo, Oryza sativa; details: 1000 g ai/ha, scale 0 to 100 (0 no effect, 100 complete control)
Outline: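 Treated at 2-leaf (paddy) or 1–4-leaf, 2–18 cm (postemergence); greenhouse 13–15 d; visual score vs control, 0 none to 100 complete control; dash = not tested.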

[15] = system: morningglory; assay: Test B pre-/postemergence herbicide test; type: in vivo, Ipomoea coccinea; details: for Plant response rating (0 to 100 scale), Morningglory: 0 is no effect
Outline: as §1

[16] = system: barnyardgrass; assay: Test B flooded paddy test; type: in vivo, Echinochloa crus-galli; details: 1000 g ai/ha, scale 0 to 100 (0 no effect, 100 complete control)
Outline: as §3

[17] = system: ducksalad; assay: Test B flooded paddy test; type: in vivo, Heteranthera limosa; details: 1000 g ai/ha, scale 0 to 100 (0 no effect, 100 complete control)
Outline: as §3

[18] = 125 g ai/ha, 100 is complete control, preemergence
[19] = 125 g ai/ha, visual rating, scale 0 (no effect) to 100 (complete control), postemergence
[20] = 500 g ai/ha, visual rating, 0 = no effect, 100 = complete control, preemergence
[21] = postemergence, 500 g ai/ha, scale 0 to 100, 0 is no effect, 100 is complete control
[22] = 125 g ai/ha, 100 is complete control
[23] = Postemergence, 500 g ai/ha, scale 0 (no effect) to 100 (complete control)

CCNC(=O)c1ccc(F)c(NC(=O)c2cn(C(C)(C)C)nc2C)c1 [Compound 345]
Plant response rating (0 to 100 scale), Cocklebur [1, 18]: 0 | Cocklebur plant response rating [1, 19]: 0 | Plant response rating, Cocklebur [1, 20]: 10 | Cocklebur plant response rating [1, 21]: 0 | Plant response rating (0 to 100 scale), Velvetleaf [2, 22]: 30 | Velvetleaf plant response rating [2, 19]: 10 | Velvetleaf plant response rating [2, 21]: 10 | Sedge, Umbrella plant response rating [3]: 80 | Plant response rating (0 to 100 scale), Foxtail, Giant [4, 18]: 10 | Foxtail, Giant plant response rating [4, 19]: 0 | Plant response rating, Foxtail, Giant [4, 20]: 30 | Foxtail, Giant plant response rating [4, 21]: 0 | Blackgrass plant response rating [5, 19]: 0 | Blackgrass plant response rating [5, 21]: 0 | Wheat plant response rating [6, 19]: 0 | Wheat plant response rating [6, 21]: 0 | Oat, Wild plant response rating [7, 19]: 0 | Oat, Wild plant response rating [7, 21]: 10 | Plant response rating (0 to 100 scale), Crabgrass, Large [8, 18]: 30 | Crabgrass, Large plant response rating [8, 19]: 0 | Plant response rating, Crabgrass, Large [8, 20]: 90 | Crabgrass, Large plant response rating [8, 21]: 0 | Plant response rating (0 to 100 scale), Barnyardgrass [9, 18]: 20 | Barnyardgrass plant response rating [9, 19]: 0 | Plant response rating, Barnyardgrass [9, 20]: 30 | Barnyardgrass plant response rating [9, 21]: 0 | Plant response rating (0 to 100 scale), Surinam Grass [10, 18]: 20 | Surinam Grass plant response rating [10, 19]: 0 | Plant response rating, Surinam Grass [10, 20]: 70 | Surinam Grass plant response rating [10, 21]: 0 | Plant response rating (0 to 100 scale), Corn [11, 18]: 0 | Corn plant response rating [11, 19]: 0 | Plant response rating, Corn [11, 20]: 10 | Corn plant response rating [11, 21]: 0 | Plant response rating (0 to 100 scale), Pigweed [12, 18]: 60 | Pigweed plant response rating [12, 19]: 20 | Plant response rating, Pigweed [12, 20]: 100 | Pigweed plant response rating [12, 21]: 20 | Plant response rating (0 to 100 scale), Lambsquarters [13, 18]: 70 | Lambsquarters plant response rating [13, 19]: 20 | Plant response rating, Lambsquarters [13, 20]: 100 | Lambsquarters plant response rating [13, 21]: 20 | Rice plant response rating [14]: 40 | Plant response rating (0 to 100 scale), Morningglory [15, 18]: 20 | Morningglory plant response rating [15, 19]: 10 | Plant response rating, Morningglory [15, 20]: 50 | Morningglory plant response rating [15, 21]: 10 | Barnyardgrass plant response rating [16]: 30 | Ducksalad plant response rating [17]: 70

Cc1nn(C(C)C)nc1C(=O)Nc1cc(C(=O)N(C)C)ccc1F [Compound 400]
Plant response rating (0 to 100 scale), Cocklebur [1, 18]: 0 | Cocklebur plant response rating [1, 19]: 0 | Cocklebur plant response rating [1, 23]: 0 | Plant response rating (0 to 100 scale), Velvetleaf [2, 22]: 0 | Velvetleaf plant response rating [2, 19]: 0 | Velvetleaf plant response rating [2, 23]: 30 | Sedge, Umbrella plant response rating [3]: 80 | Plant response rating (0 to 100 scale), Foxtail, Giant [4, 18]: 0 | Foxtail, Giant plant response rating [4, 19]: 0 | Foxtail, Giant plant response rating [4, 23]: 0 | Blackgrass plant response rating [5, 19]: 0 | Blackgrass plant response rating [5, 23]: 0 | Wheat plant response rating [6, 19]: 0 | Wheat plant response rating ([6]; 500 g ai/ha, scale 0 to 100, 0 no effect, 100 complete control, preemergence): 0 | Wheat plant response rating [6, 23]: 0 | Oat, Wild plant response rating [7, 19]: 0 | Oat, Wild plant response rating [7, 23]: 0 | Plant response rating (0 to 100 scale), Crabgrass, Large [8, 18]: 0 | Crabgrass, Large plant response rating [8, 19]: 0 | Crabgrass, Large plant response rating [8, 23]: 0 | Plant response rating (0 to 100 scale), Barnyardgrass [9, 18]: 0 | Barnyardgrass plant response rating [9, 19]: 0 | Barnyardgrass plant response rating [9, 23]: 0 | Plant response rating (0 to 100 scale), Surinam Grass [10, 18]: 0 | Surinam Grass plant response rating [10, 19]: 0 | Surinam Grass plant response rating [10, 23]: 0 | Plant response rating (0 to 100 scale), Corn [11, 18]: 0 | Corn plant response rating [11, 19]: 0 | Corn plant response rating [11, 23]: 0 | Plant response rating (0 to 100 scale), Pigweed [12, 18]: 0 | Pigweed plant response rating [12, 19]: 0 | Pigweed plant response rating [12, 23]: 20 | Plant response rating (0 to 100 scale), Lambsquarters [13, 18]: 0 | Lambsquarters plant response rating [13, 19]: 0 | Lambsquarters plant response rating [13, 23]: 10 | Rice plant response rating [14]: 0 | Plant response rating (0 to 100 scale), Morningglory [15, 18]: 0 | Morningglory plant response rating [15, 19]: 0 | Morningglory plant response rating [15, 23]: 0 | Barnyardgrass plant response rating [16]: 0 | Ducksalad plant response rating [17]: 20
